According to patent US20110130380A1, “Heteroaryl Kinase Inhibitors” (priority 2009, published 2011):
pIC50: −log10 of the molar value.

Target: Cdk9/cyclinT1 (Homo sapiens, UniProt P50750)
Experiment: Cdk9/cyclinT1 IMAP Protocol (fluorescence polarization kinase assay)
Settings: ATP 6 uM
[1] = Cdk9_cyclinT1_IC50, Table V, generated using one of the two Cdk9/cyclinT1 assays (IMAP or Alpha Screen), not stated which

Cdk9/cyclinT1, sequence (P50750 whole entry): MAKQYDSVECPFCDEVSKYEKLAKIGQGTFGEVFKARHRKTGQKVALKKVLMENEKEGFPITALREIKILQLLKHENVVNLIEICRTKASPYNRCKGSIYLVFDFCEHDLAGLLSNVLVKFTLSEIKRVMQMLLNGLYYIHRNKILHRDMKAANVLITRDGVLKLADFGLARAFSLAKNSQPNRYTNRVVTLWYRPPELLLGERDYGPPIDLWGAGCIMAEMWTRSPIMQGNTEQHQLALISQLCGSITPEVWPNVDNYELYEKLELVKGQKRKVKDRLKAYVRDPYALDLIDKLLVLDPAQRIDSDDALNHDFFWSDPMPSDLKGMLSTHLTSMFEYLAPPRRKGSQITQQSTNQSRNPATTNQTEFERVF
Cdk9/cyclinT1, sequence (O60563 whole entry partner): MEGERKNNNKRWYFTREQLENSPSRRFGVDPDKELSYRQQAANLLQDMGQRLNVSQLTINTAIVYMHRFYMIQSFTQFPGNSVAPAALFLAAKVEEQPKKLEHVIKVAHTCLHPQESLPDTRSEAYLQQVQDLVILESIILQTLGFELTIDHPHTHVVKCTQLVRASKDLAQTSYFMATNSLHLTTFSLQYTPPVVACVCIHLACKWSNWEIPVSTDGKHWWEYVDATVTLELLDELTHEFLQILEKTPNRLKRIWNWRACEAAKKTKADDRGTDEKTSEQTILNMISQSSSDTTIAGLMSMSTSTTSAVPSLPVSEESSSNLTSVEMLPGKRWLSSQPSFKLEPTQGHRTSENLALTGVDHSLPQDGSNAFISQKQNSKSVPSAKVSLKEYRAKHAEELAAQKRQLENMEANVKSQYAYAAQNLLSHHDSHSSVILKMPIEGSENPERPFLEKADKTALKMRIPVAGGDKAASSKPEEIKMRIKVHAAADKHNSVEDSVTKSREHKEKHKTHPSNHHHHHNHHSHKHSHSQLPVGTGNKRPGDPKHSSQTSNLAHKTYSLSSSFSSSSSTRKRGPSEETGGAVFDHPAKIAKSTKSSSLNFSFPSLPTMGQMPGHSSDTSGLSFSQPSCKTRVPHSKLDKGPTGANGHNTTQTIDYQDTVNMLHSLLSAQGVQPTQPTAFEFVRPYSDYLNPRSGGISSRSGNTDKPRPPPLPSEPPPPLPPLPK

| SMILES | pIC50 [1] | pIC50 (Cdk9_cyclinT1_IC50, generated using one of the two Cdk9/cyclinT1 assays (IMAP or Alpha Screen), not specified per value) |
| --- | --- | --- |
| O=C(Nc1cc(-c2cccc(NCc3cccc(F)c3)n2)c(Cl)cn1)C1CCCCC1 [Example 2, Cyclohexanecarboxylic acid [5′-chloro-6-(3-fluoro-benzylamino)-[2,4′]bipyridinyl-2′-yl]-amide] | 6.87 | – |
| C[C@@H]1CC(CNc2cccc(-c3cc(NC(=O)[C@H]4CNCCO4)ncc3Cl)n2)C[C@H](C)O1 (stereo partly drawn) [Example 169, (R)-Morpholine-2-carboxylic acid {5′-chloro-6-[((2R,6S)-2,6-dimethyl-tetrahydro-pyran-4-ylmethyl)-amino]-[2,4′]bipyridinyl-2′-yl}-amide] | 7.80 | – |
| CC1(C)COC[C@@H](CNc2nc(-c3cc(NC(=O)[C@@H]4CCCNC4)ncc3Cl)ccc2F)O1 (single isomer, unassigned) [Example 263] | 9.00 | – |
| CN(C)c1cccc(-c2cc(NC(=O)[C@@H]3CCCNC3)ncc2Cl)n1 [Example 36, (R)-Piperidine-3-carboxylic acid (5′-chloro-6-dimethylamino-[2,4′]bipyridinyl-2′-yl)-amide] | 6.99 | – |
| O=C(Nc1cc(-c2cccc(NCc3ccccc3)n2)c(Cl)cn1)[C@@H]1CCCNC1 [Example 39, (R)-Piperidine-3-carboxylic acid (6-benzylamino-5′-chloro-[2,4′]bipyridinyl-2′-yl)-amide] | > 8.10 | – |
| O=C(Nc1cc(-c2cc(NCC3CCOCC3)cnc2Cl)c(Cl)cn1)[C@H]1CNCCO1 [Example 314, (R)-Morpholine-2-carboxylic acid {2,5′-dichloro-5-[(tetrahydro-pyran-4-ylmethyl)-amino]-[3,4′]bipyridinyl-2′-yl}-amide] | – | 8.52 |
| CC(C)C(=O)Nc1cc(-c2nc(NCC3CCOCC3)ccc2Cl)c(Cl)cn1 [Example 86, N-{3,5′-Dichloro-6-[(tetrahydro-pyran-4-ylmethyl)-amino]-[2,4′]bipyridinyl-2′-yl}-isobutyramide] | > 8.10 | – |
| O=C(Nc1cc(-c2nc(NCC3CCOCC3)ccc2Cl)c(Cl)cn1)C1CNCCOC1 (single isomer, unassigned) [Example 214] | 9.00 | – |
| COC(=O)N[C@H]1CC[C@@H](C(=O)Nc2cc(-c3nc(NCC4CCOCC4)ccc3Cl)c(Cl)cn2)C1 [Example 107, ((lS,3R)-3-{3,5′-Dichloro-6-[(tetrahydro-pyran-4-ylmethyl)-amino]-[2,4′]bipyridinyl-2′-ylcarbamoyl}-cyclopentyl)-carbamic acid methyl ester] | > 8.10 | – |
| COC[C@@H]1C[C@@H](C(=O)Nc2cc(-c3nc(NCC4CCOCC4)ccc3Cl)c(Cl)cn2)CN1 [Example 185, (3R,5S)-5-Methoxymethyl-pyrrolidine-3-carboxylic acid {3,5′-dichloro-6-[(tetrahydro-pyran-4-ylmethyl)-amino]-[2,4′]bipyridinyl-2′-yl}-amide] | 9.00 | – |
| C[C@@H]1CC[C@@H](C(=O)Nc2cc(-c3cccc(NC[C@@H]4CCOC(C)(C)C4)n3)c(Cl)cn2)CN1 (mixture of isomers) [Example 225, (3R,6R)-/(3S,6S)-6-Methyl-piperidine-3-carboxylic acid {5′-chloro-6-[((R)-2,2-dimethyl-tetrahydro-pyran-4-ylmethyl)-amino]-[2,4′]bipyridinyl-2′-yl}-amide] | 9.00 | – |
| CCS(=O)(=O)N1CCC[C@H](C(=O)Nc2cc(-c3nc(NCC4CCOCC4)ccc3Cl)c(Cl)cn2)C1 [Example 111, (S)-1-Ethanesulfonyl-piperidine-3-carboxylic acid {3,5′-dichloro-6-[(tetrahydro-pyran-4-ylmethyl)-amino]-[2,4′]bipyridinyl-2′-yl}-amide] | > 8.10 | – |
| CO[C@H]1CNC[C@@H]1C(=O)Nc1cc(-c2nc(NCC3CCOCC3)c(F)cc2Cl)c(Cl)cn1 [Example 181, (3S,4R)-4-Methoxy-pyrrolidine-3-carboxylic acid {3,5′-dichloro-5-fluoro-6-[(tetrahydro-pyran-4-ylmethyl)-amino]-[2,4′]bipyridinyl-2′-yl}-amide] | 9.00 | – |
| CC1(C)COCC(CNc2nc(-c3cc(NC(=O)[C@@H]4CCCNC4)ncc3Cl)ccc2F)O1 (stereo partly drawn) [Example 254, (R)-Piperidine-3-carboxylic acid {5′-chloro-6-[(6,6-dimethyl-[1,4]dioxan-2-ylmethyl)-amino]-5-fluoro-[2,4′]bipyridinyl-2′-yl}-amide] | 9.00 | – |
| O=C(COc1ccc(Cl)cn1)Nc1cc(-c2cccc(NCC3CCOCC3)n2)c(Cl)cn1 [Example 103, 2-(5-Chloro-pyridin-2-yloxy)-N-{5′-chloro-6-[(tetrahydro-pyran-4-ylmethyl)-amino]-[2,4′]bipyridinyl-2′-yl}-acetamide] | 7.57 | – |
| O=C(Nc1cc(-c2nc(NCC3CCOCC3)ccc2Cl)c(Cl)cn1)C1CNCCOC1 (centres unmarked) [Example 191, [1,4]Oxazepane-6-carboxylic acid {3,5′-dichloro-6-[(tetrahydro-pyran-4-ylmethyl)-amino]-[2,4′]bipyridinyl-2′-yl}-amide] | 9.00 | – |
| O=C(Nc1cc(-c2cccc(N3CCC(c4ccccc4)CC3)n2)c(Cl)cn1)[C@@H]1CCCNC1 [Example 42, (R)-Piperidine-3-carboxylic acid (5″- chloro-4-phenyl-3,4,5,6-tetrahydro-2H-[1,2′;6′,4″]terpyridin-2″- yl)-amide] | 7.38 | – |

Continued, values first:

| pIC50 [1] | pIC50 (Cdk9_cyclinT1_IC50, generated using one of the two Cdk9/cyclinT1 assays (IMAP or Alpha Screen), not specified per value) | SMILES |
| --- | --- | --- |
| 8.70 | – | O=C(Nc1cc(-c2cccc(NCC3CCOCC3)n2)c(Cl)cn1)C1CCCCNC1 (centres unmarked) [Example 193, Azepane-3-carboxylic acid {5′-chloro-6-[(tetrahydro-pyran-4-ylmethyl)-amino]-[2,4′]bipyridinyl-2′-yl}-amide] |
| 7.34 | – | C[C@H]1CNC[C@H](C(=O)Nc2cc(-c3cccc(NCC4CCOCC4)n3)c(Cl)cn2)C1 (racemic) [Example 104, (3R,5R)-/(3S,5S)-5-Methyl-piperidine-3-carboxylic acid {5′-chloro-6-[(tetrahydro-pyran-4-ylmethyl)-amino]-[2,4′]bipyridinyl-2′-yl}-amide] |
| 9.00 | – | O=C(Nc1cc(-c2nc(NCC3CCOCC3)ccc2F)c(Cl)cn1)[C@@H]1CCCNC1 [Example 157, (R)-Piperidine-3-carboxylic acid {5′-chloro-3-fluoro-6-[(tetrahydro-pyran-4-ylmethyl)-amino]-[2,4′]bipyridinyl-2′-yl}-amide] |
| 7.89 | – | C[C@H]1CNC[C@@H](C(=O)Nc2cc(-c3cccc(NCC4CCOCC4)n3)c(Cl)cn2)C1 (single isomer, unassigned) [Example 129] |
| 6.94 | – | O=C(Nc1cc(-c2cccc(NCC3CCOCC3)n2)c(Cl)cn1)[C@@H]1CCCN1 [Example 58, (S)-Pyrrolidine-2-carboxylic acid {5′-chloro-6-[(tetrahydro-pyran-4-ylmethyl)-amino]-[2,4′]bipyridinyl-2′-yl}-amide] |
| 7.09 | – | CCN1CCC[C@@H](C(=O)Nc2cc(-c3cccc(NCC4CCOCC4)n3)c(Cl)cn2)C1 (single isomer, unassigned) [Example 56] |
| 8.15 | – | CC[C@H]1CC[C@@H](C(=O)Nc2cc(-c3cccc(NCC4CCOCC4)n3)c(Cl)cn2)CN1 [Example 247, (3R,6S)-6-Ethyl-piperidine-3-carboxylic acid {5′-chloro-6-[(tetrahydro-pyran-4-ylmethyl)-amino]-[2,4′]bipyridinyl-2′-yl}-amide] |
| 7.04 | – | CC(C)(C)OC(=O)N1CCC[C@@H](C(=O)Nc2cc(-c3cccc(NCC4CCOCC4)n3)c(Cl)cn2)C1 [Example 6, (R)-3-{5′-Chloro-6-[(tetrahydro-pyran-4-ylmethyl)-amino]-[2,4′]bipyridinyl-2′-ylcarbamoyl}-piperidine-1-carboxylic acid tert-butyl ester] |
| 6.77 | – | CO[C@H]1CNC[C@@H](C(=O)Nc2cc(-c3cccc(NCC4CCOCC4)n3)c(Cl)cn2)C1 (single isomer, unassigned) [Example 212] |
| 7.68 | – | O=C(Nc1cc(-c2cccc(NC[C@@H]3CCCO3)n2)c(Cl)cn1)[C@@H]1CCCNC1 [Example 27, (R)-Piperidine-3-carboxylic acid (5′-chloro-6-{[(S)-1-(tetrahydro-furan-2-yl)methyl]-amino}-[2,4′]bipyridinyl-2′-yl)-amide] |
| > 8.10 | – | CC1(C)CC(CNc2cccc(-c3cc(NC(=O)[C@@H]4CCCNC4)ncc3Cl)n2)CCO1 (stereo partly drawn) [Example 94, (R)-Piperidine-3-carboxylic acid {5′-chloro-6-[(2,2-dimethyl-tetrahydro-pyran-4-ylmethyl)-amino]-[2,4′]bipyridinyl-2′-yl}-amide] |
| 7.25 | – | O=C(Nc1cc(-c2cccc(NCC3CCCOC3)n2)c(Cl)cn1)[C@H]1CCCNC1 (stereo partly drawn) [Example 46, (S)-Piperidine-3-carboxylic acid {5′-chloro-6-[(tetrahydro-pyran-3-ylmethyl)-amino]-[2,4′]bipyridinyl-2′-yl}-amide] |
| > 8.10 | – | C[C@H]1CC[C@@H](C(=O)Nc2cc(-c3cccc(NCC4CCOCC4)n3)c(Cl)cn2)CN1 (single isomer, unassigned) [Example 141] |
| 7.29 | – | CN1CCCCC(C(=O)Nc2cc(-c3cccc(NCC4CCOCC4)n3)c(Cl)cn2)C1 (centres unmarked) [Example 199, 1-Methyl-azepane-3-carboxylic acid {5′-chloro-6-[(tetrahydro-pyran-4-ylmethyl)-amino]-[2,4′]bipyridinyl-2′-yl}-amide] |
| 7.85 | – | O=C(Nc1cc(-c2cccc(NCC3CCOCC3)n2)c(Cl)cn1)C1CCNCC1 [Example 7, Piperidine-4-carboxylic acid {5′-chloro-6-[(tetrahydro-pyran-4-ylmethyl)-amino]-[2,4′]bipyridinyl-2′-yl}-amide] |
| 9.00 | – | CC1(C)C[C@H](CNc2cccc(-c3cc(NC(=O)[C@@H]4CCCNC4)ncc3Cl)n2)CCO1 (single isomer, unassigned) [Example 115] |
| > 8.10 | – | N[C@@H]1CC[C@H](C(=O)Nc2cc(-c3cccc(NCC4CCOCC4)n3)c(Cl)cn2)C1 [Example 47, (1S,3R)-3-Amino-cyclopentanecarboxylic acid {5′-chloro-6-[(tetrahydro-pyran-4-ylmethyl)-amino]-[2,4′]bipyridinyl-2′-yl}-amide] |
| 9.00 | – | C[C@@H]1CC[C@@H](C(=O)Nc2cc(-c3cccc(NC[C@@H]4CCOC(C)(C)C4)n3)c(Cl)cn2)CN1 (single isomer, unassigned) [Example 242] |
